Measurements as given in ChEMBL document CHEMBL5346912, “Discovery of 3,5-diaryl-1H-pyrazol-based ureas as potent RET inhibitors” (Eur J Med Chem, 2023).
Active and inactive are the calls of the source. No cut-off for these calls is given here.

Tests used:
[1] = Tmax in fasted Sprague-Dawley rat at 25 mg/kg, po; format: ADME, organism-based; conditions: in vivo
[2] = biological target: Vascular endothelial growth factor receptor 2 (Homo sapiens, UniProt P35968); test: Inhibition of VEGFR2 (unknown origin) by DiscoverX KINOMEscan assay
[3] = biological target: T1, Proto-oncogene tyrosine-protein kinase receptor Ret (Homo sapiens, UniProt P07949); test: Inhibition of RET (unknown origin) by DiscoverX KINOMEscan assay
[4] = Toxicity in CB17-SCID mouse model xenografted with mouse BaF3 cells expressing CCDC6-RET-V804M assessed as animal mortality at 30 to 60 mg/kg, po qd via gavage for 14 days; format: organism-based; conditions: in vivo, 336 h, dose 30-60 mg/kg, time 14 day
[5] = biological target: T1, Proto-oncogene tyrosine-protein kinase receptor Ret; test: Binding affinity to RET (unknown origin) assessed as dissociation constant in presence of ATP by FRET based Z'-Lyte assay
[6] = biological target: Proto-oncogene tyrosine-protein kinase receptor Ret (Mus musculus) (UniProt P35546); test: Inhibition of RET signalling pathway in mouse BaF3 cells harboring CCDC6-RET assessed as suppression of RET phosphorylation at 33.3 nM incubated for 4 hrs by Western blot analysis; format: cell-based
[7] = biological target: Platelet-derived growth factor receptor beta (Homo sapiens, UniProt P09619); test: Inhibition of PDGFRB (unknown origin) by DiscoverX KINOMEscan assay
[8] = biological target: Proto-oncogene tyrosine-protein kinase receptor Ret (Homo sapiens, UniProt P07949, V804M); test: Inhibition of RET V804M mutant (unknown origin) by DiscoverX KINOMEscan assay
BaF3 [9] = test: Antitumor activity against mouse BaF3 cells expressing CCDC6-RET-V804M xenografted in CB17-SCID mouse model assessed as tumor growth inhibition at 60 mg/kg, po qd via gavage for 14 days relative to control; format: functional; conditions: BaF3, 336 h, time 14 day, read-out: TGI
BaF3 [10] = test: Antiproliferative activity against mouse BaF3 cells expressing CCDC6-RET-G810R incubated for 72 hrs by CCK8 assay; format: functional, cell-based; conditions: BaF3, 72 h
BaF3 [11] = test: cells; conditions: Mus musculus, BaF3, 72 h
Description: Antiproliferative activity against mouse BaF3 cells incubated for 72 hrs by CCK8 assay

[12] = biological target: Proto-oncogene tyrosine-protein kinase receptor Ret (Mus musculus) (UniProt P35546); test: Inhibition of RET signalling pathway in mouse BaF3 cells harboring CCDC6-RET-V804M mutant assessed as suppression of SHC activation at 33.3 nM incubated for 4 hrs by Western blot analysis; format: cell-based
[13] = Cmax in fasted Sprague-Dawley rat at 25 mg/kg, po; format: ADME, organism-based; set-up: dose 25 mg/kg, route po; conditions: in vivo
[14] = biological target: Proto-oncogene tyrosine-protein kinase receptor Ret (Mus musculus) (UniProt P35546); test: Inhibition of RET signalling pathway in mouse BaF3 cells harboring CCDC6-RET-G810C mutant assessed as suppression of RET phosphorylation at 33.3 nM incubated for 4 hrs by Western blot analysis; format: cell-based
BaF3 [15] = test: Antitumor activity against mouse BaF3 cells expressing CCDC6-RET-V804M xenografted in CB17-SCID mouse model assessed as tumor growth inhibition at 30 mg/kg, po qd via gavage for 14 days relative to control; format: functional; conditions: BaF3, 336 h, time 14 day, read-out: TGI
[16] = Bioavailability in fasted Sprague-Dawley rat at 25 mg/kg, po; format: ADME, organism-based; conditions: in vivo
[17] = Half life in fasted Sprague-Dawley rat at 25 mg/kg, po; format: ADME, organism-based; conditions: in vivo
[18] = biological target: Proto-oncogene tyrosine-protein kinase receptor Ret (Mus musculus) (UniProt P35546); test: Inhibition of RET signalling pathway in mouse BaF3 cells harboring CCDC6-RET assessed as suppression of SHC activation at 33.3 nM incubated for 4 hrs by Western blot analysis; format: cell-based
[19] = Half life in Sprague-Dawley rat at 5 mg/kg, iv; format: ADME, organism-based; conditions: in vivo
BaF3 [20] = test: Antiproliferative activity against mouse BaF3 cells expressing CCDC6-RET-G810C incubated for 72 hrs by CCK8 assay; format: functional, cell-based; conditions: BaF3, 72 h
BaF3 [21] = test: Antiproliferative activity against mouse BaF3 cells expressing CCDC6-RET incubated for 72 hrs by CCK8 assay; format: functional, cell-based; conditions: BaF3, 72 h
[22] = biological target: Epidermal growth factor receptor (Homo sapiens, UniProt P00533); test: Inhibition of EGFR (unknown origin) by DiscoverX KINOMEscan assay
[23] = biological target: Proto-oncogene tyrosine-protein kinase receptor Ret (Mus musculus) (UniProt P35546); test: Inhibition of RET signalling pathway in mouse BaF3 cells harboring CCDC6-RET-G810C mutant assessed as suppression of RET activation incubated for 4 hrs by Western blot analysis; format: cell-based; conditions: dose <= 300.0 nM
[24] = biological target: Epithelial discoidin domain-containing receptor 1 (Homo sapiens, UniProt Q08345); test: Inhibition of DDR1 (unknown origin) by DiscoverX KINOMEscan assay
[25] = biological target: Proto-oncogene tyrosine-protein kinase receptor Ret (Mus musculus) (UniProt P35546); test: Inhibition of RET signalling pathway in mouse BaF3 cells harboring CCDC6-RET-V804M mutant assessed as suppression of RET phosphorylation at 33.3 nM incubated for 4 hrs by Western blot analysis; format: cell-based
[26] = biological target: Macrophage colony-stimulating factor 1 receptor (Homo sapiens, UniProt P07333); test: Inhibition of CSF1R (unknown origin) by DiscoverX KINOMEscan assay
[27] = biological target: Mast/stem cell growth factor receptor Kit (Homo sapiens, UniProt P10721); test: Inhibition of KIT (unknown origin) by DiscoverX KINOMEscan assay
[28] = biological target: Proto-oncogene tyrosine-protein kinase receptor Ret (Mus musculus) (UniProt P35546); test: Inhibition of RET signalling pathway in mouse BaF3 cells harboring CCDC6-RET-G810C mutant assessed as suppression of SHC activation incubated for 4 hrs by Western blot analysis; format: cell-based; conditions: dose <= 300.0 nM
[29] = AUC (0 to infinity) in fasted Sprague-Dawley rat at 25 mg/kg, po; format: ADME, organism-based; set-up: dose 25 mg/kg, route po; conditions: in vivo
[30] = biological target: Proto-oncogene tyrosine-protein kinase receptor Ret (Mus musculus) (UniProt P35546); test: Inhibition of RET signalling pathway in mouse BaF3 cells harboring CCDC6-RET-G810C mutant assessed as suppression of SHC activation at 33.3 nM incubated for 4 hrs by Western blot analysis; format: cell-based
[31] = Toxicity in CB17-SCID mouse model xenografted with mouse BaF3 cells expressing CCDC6-RET-V804M assessed as body weight loss at 30 to 60 mg/kg, po qd via gavage for 14 days; format: organism-based; conditions: in vivo, 336 h, dose 30-60 mg/kg, time 14 day
[32] = Cmax in Sprague-Dawley rat at 5 mg/kg, iv; format: ADME, organism-based; set-up: dose 5 mg/kg, route iv; conditions: in vivo
BaF3 [33] = test: Antiproliferative activity against mouse BaF3 cells expressing CCDC6-RET-V804M incubated for 72 hrs by CCK8 assay; format: functional, cell-based; conditions: BaF3, 72 h
[34] = AUC (0 to infinity) in Sprague-Dawley rat at 5 mg/kg, iv; format: ADME, organism-based; set-up: dose 5 mg/kg, route iv; conditions: in vivo

Sequence of Proto-oncogene tyrosine-protein kinase receptor Ret (Mus musculus) (P35546 whole entry, the tested form may be a part): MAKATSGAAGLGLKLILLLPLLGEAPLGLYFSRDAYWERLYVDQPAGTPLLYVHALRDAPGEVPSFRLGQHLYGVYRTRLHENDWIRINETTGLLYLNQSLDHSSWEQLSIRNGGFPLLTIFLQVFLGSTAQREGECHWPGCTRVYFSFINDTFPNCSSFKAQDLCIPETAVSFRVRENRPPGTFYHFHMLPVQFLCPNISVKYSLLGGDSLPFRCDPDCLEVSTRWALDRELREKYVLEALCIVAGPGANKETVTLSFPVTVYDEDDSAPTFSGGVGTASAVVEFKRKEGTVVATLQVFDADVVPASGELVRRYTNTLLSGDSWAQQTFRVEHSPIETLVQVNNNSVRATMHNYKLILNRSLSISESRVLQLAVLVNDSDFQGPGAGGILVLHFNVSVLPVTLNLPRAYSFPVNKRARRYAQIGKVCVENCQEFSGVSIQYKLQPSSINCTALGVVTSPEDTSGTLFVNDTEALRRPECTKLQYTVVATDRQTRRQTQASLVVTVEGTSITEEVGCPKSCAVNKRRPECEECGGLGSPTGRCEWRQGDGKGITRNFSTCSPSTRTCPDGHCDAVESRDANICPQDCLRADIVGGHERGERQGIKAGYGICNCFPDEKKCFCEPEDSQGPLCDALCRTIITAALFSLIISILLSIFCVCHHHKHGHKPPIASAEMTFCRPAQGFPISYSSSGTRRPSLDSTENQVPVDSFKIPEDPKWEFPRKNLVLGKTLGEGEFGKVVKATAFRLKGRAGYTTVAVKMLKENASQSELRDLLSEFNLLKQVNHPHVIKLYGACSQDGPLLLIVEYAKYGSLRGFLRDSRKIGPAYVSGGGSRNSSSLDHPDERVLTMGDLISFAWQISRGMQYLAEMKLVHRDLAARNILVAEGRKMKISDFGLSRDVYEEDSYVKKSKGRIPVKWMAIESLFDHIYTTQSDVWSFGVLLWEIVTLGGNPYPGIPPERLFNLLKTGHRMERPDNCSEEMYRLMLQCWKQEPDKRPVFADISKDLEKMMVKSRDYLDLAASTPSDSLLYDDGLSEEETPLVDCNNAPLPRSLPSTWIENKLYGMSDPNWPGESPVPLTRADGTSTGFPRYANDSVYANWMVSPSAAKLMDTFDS
T1 sequence (P07949 whole entry): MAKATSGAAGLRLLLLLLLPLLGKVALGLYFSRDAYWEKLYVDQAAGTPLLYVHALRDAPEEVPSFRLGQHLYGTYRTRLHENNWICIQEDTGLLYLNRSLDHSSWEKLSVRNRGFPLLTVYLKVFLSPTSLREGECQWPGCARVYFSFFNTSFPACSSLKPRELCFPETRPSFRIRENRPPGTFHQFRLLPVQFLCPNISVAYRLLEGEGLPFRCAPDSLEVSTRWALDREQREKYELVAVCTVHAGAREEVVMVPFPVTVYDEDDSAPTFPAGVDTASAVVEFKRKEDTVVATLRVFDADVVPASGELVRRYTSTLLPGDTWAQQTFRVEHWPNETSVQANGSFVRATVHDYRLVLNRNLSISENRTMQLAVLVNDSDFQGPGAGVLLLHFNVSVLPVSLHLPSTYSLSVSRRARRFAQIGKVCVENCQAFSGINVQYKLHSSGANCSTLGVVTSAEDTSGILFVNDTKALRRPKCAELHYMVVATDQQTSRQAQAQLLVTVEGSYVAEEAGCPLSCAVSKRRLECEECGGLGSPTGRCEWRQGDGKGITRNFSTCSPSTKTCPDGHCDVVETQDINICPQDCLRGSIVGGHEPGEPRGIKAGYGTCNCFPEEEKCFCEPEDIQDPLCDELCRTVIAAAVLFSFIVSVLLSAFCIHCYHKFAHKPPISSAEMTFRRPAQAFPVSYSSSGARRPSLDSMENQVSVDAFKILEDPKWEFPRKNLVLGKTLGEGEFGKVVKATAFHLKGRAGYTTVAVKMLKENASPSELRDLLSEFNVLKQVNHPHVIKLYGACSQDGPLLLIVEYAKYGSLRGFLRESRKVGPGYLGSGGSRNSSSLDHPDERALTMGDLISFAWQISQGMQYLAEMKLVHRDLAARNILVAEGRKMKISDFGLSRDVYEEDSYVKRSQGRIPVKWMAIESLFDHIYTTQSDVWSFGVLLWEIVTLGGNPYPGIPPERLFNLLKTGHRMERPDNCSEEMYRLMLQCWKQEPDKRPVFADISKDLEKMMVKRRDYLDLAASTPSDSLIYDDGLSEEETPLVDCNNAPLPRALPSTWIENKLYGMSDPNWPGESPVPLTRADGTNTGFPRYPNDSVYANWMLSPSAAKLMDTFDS
Sequence of Epidermal growth factor receptor (P00533 whole entry): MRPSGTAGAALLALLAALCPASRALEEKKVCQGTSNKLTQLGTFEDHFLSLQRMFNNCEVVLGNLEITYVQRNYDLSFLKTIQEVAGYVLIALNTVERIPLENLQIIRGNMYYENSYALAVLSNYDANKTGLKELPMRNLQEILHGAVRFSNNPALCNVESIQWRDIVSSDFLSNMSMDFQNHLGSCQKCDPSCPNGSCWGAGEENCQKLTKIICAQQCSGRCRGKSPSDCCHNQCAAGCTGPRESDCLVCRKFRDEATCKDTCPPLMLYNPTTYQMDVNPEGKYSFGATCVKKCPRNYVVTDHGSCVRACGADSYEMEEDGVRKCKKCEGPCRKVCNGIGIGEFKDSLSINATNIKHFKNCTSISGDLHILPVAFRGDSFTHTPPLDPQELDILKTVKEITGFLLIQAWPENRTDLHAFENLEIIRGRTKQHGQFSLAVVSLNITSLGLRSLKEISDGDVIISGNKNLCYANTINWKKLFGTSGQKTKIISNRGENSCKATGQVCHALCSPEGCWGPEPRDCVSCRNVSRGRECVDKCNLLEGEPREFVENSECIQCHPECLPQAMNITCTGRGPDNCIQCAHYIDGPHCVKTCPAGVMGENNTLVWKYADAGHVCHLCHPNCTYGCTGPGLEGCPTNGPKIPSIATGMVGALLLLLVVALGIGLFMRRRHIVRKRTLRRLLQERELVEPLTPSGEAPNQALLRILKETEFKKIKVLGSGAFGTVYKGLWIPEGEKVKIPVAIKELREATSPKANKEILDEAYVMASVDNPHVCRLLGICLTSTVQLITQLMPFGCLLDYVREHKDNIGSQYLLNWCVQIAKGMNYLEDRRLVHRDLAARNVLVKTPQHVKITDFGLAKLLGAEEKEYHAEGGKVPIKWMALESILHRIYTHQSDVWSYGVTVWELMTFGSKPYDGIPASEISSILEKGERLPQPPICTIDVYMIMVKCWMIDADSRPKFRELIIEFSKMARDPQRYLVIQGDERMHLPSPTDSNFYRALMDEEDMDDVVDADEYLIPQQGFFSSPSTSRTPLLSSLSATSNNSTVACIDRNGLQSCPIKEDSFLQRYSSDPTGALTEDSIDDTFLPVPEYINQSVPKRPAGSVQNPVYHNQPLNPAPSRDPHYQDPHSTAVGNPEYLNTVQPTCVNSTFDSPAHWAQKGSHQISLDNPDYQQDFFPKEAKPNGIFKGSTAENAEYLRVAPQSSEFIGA
Sequence of Mast/stem cell growth factor receptor Kit (P10721 whole entry): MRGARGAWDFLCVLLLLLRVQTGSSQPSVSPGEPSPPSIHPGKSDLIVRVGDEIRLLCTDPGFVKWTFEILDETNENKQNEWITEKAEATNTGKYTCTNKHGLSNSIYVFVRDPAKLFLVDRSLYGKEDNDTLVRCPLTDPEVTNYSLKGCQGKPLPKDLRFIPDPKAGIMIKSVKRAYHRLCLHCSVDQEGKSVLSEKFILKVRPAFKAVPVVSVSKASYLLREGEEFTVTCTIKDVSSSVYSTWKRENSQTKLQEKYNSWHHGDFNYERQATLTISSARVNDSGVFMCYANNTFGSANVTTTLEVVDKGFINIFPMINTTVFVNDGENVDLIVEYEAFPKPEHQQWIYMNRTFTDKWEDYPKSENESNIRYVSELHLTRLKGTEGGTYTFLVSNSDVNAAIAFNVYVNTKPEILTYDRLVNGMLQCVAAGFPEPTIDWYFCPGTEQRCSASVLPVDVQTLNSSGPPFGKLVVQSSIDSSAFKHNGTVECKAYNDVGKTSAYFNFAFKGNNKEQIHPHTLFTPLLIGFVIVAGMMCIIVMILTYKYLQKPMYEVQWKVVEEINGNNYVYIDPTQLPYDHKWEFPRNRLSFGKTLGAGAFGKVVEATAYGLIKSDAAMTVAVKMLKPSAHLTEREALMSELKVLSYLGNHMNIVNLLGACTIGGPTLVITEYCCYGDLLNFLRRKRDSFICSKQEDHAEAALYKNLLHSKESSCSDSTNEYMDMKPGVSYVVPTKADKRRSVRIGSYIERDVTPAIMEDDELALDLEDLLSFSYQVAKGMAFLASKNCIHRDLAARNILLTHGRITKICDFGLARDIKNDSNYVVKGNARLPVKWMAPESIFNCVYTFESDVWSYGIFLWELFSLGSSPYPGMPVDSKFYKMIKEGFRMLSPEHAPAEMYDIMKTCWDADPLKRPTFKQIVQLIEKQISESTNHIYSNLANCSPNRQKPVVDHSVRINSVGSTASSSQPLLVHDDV

Work on `CC(C)(c1cc(NC(=O)Nc2ccc(-c3cc(-c4ccc(OCCN5CCOCC5)cc4)[nH]n3)cc2)no1)C(F)(F)F` yielded a Tmax [1] of 6.7 h, an IC50 [2] of 380 nM and an IC50 [3] of 20.9 nM. For the same compound, the Activity [4] was “Non-Toxic”, the Kd [5] was 6.5 nM and the inhibition [6] was “Active”. For the same compound, the IC50 [7] was 16.3 nM, the IC50 [8] was 18.3 nM and the inhibition in vivo at 60 mg/kg (BaF3 [9]) was 94.6%. For the same compound, the IC50 (BaF3 [10]) was 401 nM, the IC50 (BaF3 [11]) was 3.87 µM and the inhibition [12] was “Active”. The Cmax [13] was 2060 ng/mL, the inhibition [14] was “Active” and the inhibition in vivo at 30 mg/kg (BaF3 [15]) was 83.6%. For the same compound, the bioavailability [16] was 21.1%, the half-life [17] was 744 min and the inhibition [18] was “Active”. For the same compound, the half-life [19] was 528 min, the IC50 (BaF3 [20]) was 84.6 nM and the IC50 (BaF3 [21]) was 13.6 nM. The IC50 [22] was > 1000 nM, the inhibition [23] was “Dose-Dependent Effect” and the IC50 [24] was 66.6 nM. The inhibition [25] was “Active”, the IC50 [26] was 108 nM and the IC50 [27] was 45.1 nM. The inhibition [28] was “Dose-Dependent Effect”, the AUC(0-inf) [29] was 43800 ng·h/mL and the inhibition [30] was “Active”. The Activity [31] was “Non-Toxic”, the Cmax [32] was 9970 ng/mL and the IC50 (BaF3 [33]) was 12.1 nM. For the same compound, the AUC(0-inf) [34] was 32500 ng·h/mL.
